Measured values published in US8614054B2, “Laser scanning cytometry mediated analysis of therapeutic efficacy in tumors” (Board of Regents, The University of Texas System, priority 2000, dated 2013).

What was measured:
tumor endothelial cells [1] = experiment: LSC analysis of endothelial cell death (CD31/TUNEL double staining) in treated mouse tumors; assay type: in vivo; conditions: mouse liver metastasis model, treated vs untreated tumors
From the text: (§1) Tumor specimens or patient biopsies are obtained prior to and several time points post-treatment such as 1, 3, and 7 days or more. Tissue sections are stained using an immunofluorescent double-labeling technique which permits the simultaneous detection of endothelial cells and fluorescent markers of apoptosis such as TUNEL or caspase activity. The tissue sections are scanned by the LSC and cell data is collected by the instrument's software. For the first scan, the Wincyte software is setup by the user to contour on the cell nuclei based on propidium iodide staining. Contouring on the cell nuclei provides the total cell number of the tissue specimen and creates a ‘tissue map’ which permits selective gating of the tumor cells. In addition, contouring on the cell nuclei permits the software to identify endothelial cells (based on CD31 and/or CD34, Pharmingen, Inc., fluorescent staining) and/or TUNEL positive cells (based on fluorescent TUNEL, Promega, Inc.). […] A substantial increase in endothelial cell death post-treatment will indicate drug efficacy to induce apoptosis in tumor endothelial cells. Subsequent to endothelial cell death is the decay of the tumor vasculature. For the second scan, the Wincyte software is setup by the user to contour on the blood vessels of the tumor. The contouring is based on the fluorescence of the endothelial cell markers (CD31 and/or CD34). […]

tumor vasculature [2] = experiment: LSC-mediated blood vessel contouring (blood vessel density) in mouse tumors; assay type: in vivo; conditions: treated mouse tumor, Cy5 label; untreated mouse tumor 52%
Protocol: (§2) Blood vessel density is defined herein as the number of blood vessels as determined from analyzing the fluorescence emission of markers bound to the endothelial cells divided by the total number of cells in the tumor as determined from analyzing the fluorescence emission of markers bound to the cell nuclei. Endothelial cell density is measured because it is a more sensitive marker. Breaks in fluorescence of the endothelial cell stain will delimitate individual blood vessels.
After the scan is complete, the gates are set on the scattergram so that the collected data can be analyzed. Relocation of a cell is used to visualize which cells are positive, i.e. CD31 and/or TUNEL positive. […] The data file can be replayed to obtain the number of cells in each quadrant that are representative of the total percent of all cells counted. […] For BVD, the instruments software is set to contour on CD31 fluorescence. […] The instrument then scans the same area but counts the number of blood vessels, i.e. a single vessel is counted by contiguous fluorescent light. […] BVD can be calculated for that sample by dividing the blood vessel count by the total number of tumor endothelial cells. Endothelial cell density is determined by dividing the total number of endothelial cells by the total number of tumor cells. […]

breast tumor cells = conditions: breast cancer patients, following neoadjuvant chemotherapy (FIG. 14)
Protocol: FIGS. 14A-E—Biopsies taken from breast cancer patients pre and post-treatment (24, 48, 66 hours) following neoadjuvant chemotherapy were processed and stained for fluorescent TUNEL. The number of TUNEL positive cells were counted and results are represented as a percent of total cells counted. FIGS. 14F-H—Biopsies taken from breast cancer patients pre, 24, and 48 hours following neoadjuvant chemotherapy were processed and stained for fluorescent TUNEL. FIG. 14F—Representative image of tumor cell apoptosis in a human breast tumor biopsy pre- and post-chemotherapy (48 hrs.) before it is scanned by the LSC. […] FIG. 14G—Representative image of tumor cell apoptosis in a human breast tumor biopsy pre- and post-chemotherapy (48 hrs.) before it is scanned by the LSC. […] FIG. 14H—Bar graph showing the percent change in apoptotic tumor cells post-chemotherapy (24 & 48 hrs.).

tumor cells = experiment: LSC analysis of tumor cell death in patient biopsies pre and post-treatment with endostatin; assay type: in vivo, human; conditions: for change in tumor cell death: pre vs post-treatment
From the text: Tumor specimens or patient biopsies are obtained prior to and several time points post-treatment such as 1, 3, and 7 days or more. Tissue sections are stained using an immunofluorescent double-labeling technique which permits the simultaneous detection of endothelial cells and fluorescent markers of apoptosis such as TUNEL or caspase activity. The tissue sections are scanned by the LSC and cell data is collected by the instrument's software. For the first scan, the Wincyte software is setup by the user to contour on the cell nuclei based on propidium iodide staining. Contouring on the cell nuclei provides the total cell number of the tissue specimen and creates a ‘tissue map’ which permits selective gating of the tumor cells. In addition, contouring on the cell nuclei permits the software to identify endothelial cells (based on CD31 and/or CD34, Pharmingen, Inc., fluorescent staining) and/or TUNEL positive cells (based on fluorescent TUNEL, Promega, Inc.). […] A substantial increase in endothelial cell death post-treatment will indicate drug efficacy to induce apoptosis in tumor endothelial cells. Subsequent to endothelial cell death is the decay of the tumor vasculature. For the second scan, the Wincyte software is setup by the user to contour on the blood vessels of the tumor. The contouring is based on the fluorescence of the endothelial cell markers (CD31 and/or CD34). […] If the treatment targets the tumor vasculature, the number of blood vessels in the tumor will be dramatically lower post-treatment.
Biopsies at different tumor sites were obtained from each of the five patients prior to and after treatment. The biopsies were stained with TUNEL and cy5 labeled antibody to CD31/[…]. […] FIGS. 8-9 represent LSC data from two of the patients. […] The data obtained from contouring on the blood vessels is shown in FIG. 12 where a representative image of blood vessel staining (CD31) is shown.
This gives a difference of 0.23. The 95% CI for this difference is (0.00,0.47), p=0.050 and is significant.

tumor endothelial cells [3] = experiment: LSC analysis of tumor endothelial cell death in patient biopsies pre and post-treatment with endostatin; assay type: in vivo, human
From the text: as §1

tumor vasculature [4] = experiment: LSC-mediated blood vessel contouring (blood vessel density) of patient biopsies pre and post-treatment with endostatin; assay type: in vivo, human
Protocol: as §2
After the scan is complete, the gates are set on the scattergram so that the collected data can be analyzed. Relocation of a cell is used to visualize which cells are positive, i.e. CD31 and/or TUNEL positive. Visualization allows the gate on the scattergram to be moved so that the positive cells fall in the appropriate quadrant. The data file can be replayed to obtain the number of cells in each quadrant that are representative of the total percent of all cells counted. […] For BVD, the instruments software is set to contour on CD31 fluorescence. In Examples 2-7, this is by selecting the long red filter during the setup. The instrument then scans the same area but counts the number of blood vessels, i.e. a single vessel is counted by contiguous fluorescent light. […] BVD can be calculated for that sample by dividing the blood vessel count by the total number of tumor endothelial cells. Endothelial cell density is determined by dividing the total number of endothelial cells by the total number of tumor cells.
Tumor specimens or patient biopsies are obtained prior to and several time points post-treatment such as 1, 3, and 7 days or more. Tissue sections are stained using an immunofluorescent double-labeling technique which permits the simultaneous detection of endothelial cells and fluorescent markers of apoptosis such as TUNEL or caspase activity. The tissue sections are scanned by the LSC and cell data is collected by the instrument's software. […] The contouring is based on the fluorescence of the endothelial cell markers (CD31 and/or CD34). […]

endothelial cells = experiment: LSC quantification of endothelial cell density (ED) in tumor biopsies; assay type: in vivo, human; conditions: following 56 days of treatment
Protocol: FIGS. 17A-B—FIG. 17A Is a diagram showing the concept of quantifying endothelial cells in a tumor biopsy using the LSC. The LSC is used to count endothelial and tumor cells independently in a biopsy. Endothelial cell density (ED) is calculated by dividing the total number of endothelial cells by the total number of tumor cells. FIG. 17B Graph showing that Endostatin decreased ED 1.3 fold following 56 days of treatment.
After the scan is complete, the gates are set on the scattergram so that the collected data can be analyzed. Relocation of a cell is used to visualize which cells are positive, i.e. CD31 and/or TUNEL positive. Visualization allows the gate on the scattergram to be moved so that the positive cells fall in the appropriate quadrant. The data file can be replayed to obtain the number of cells in each quadrant that are representative of the total percent of all cells counted. […] For BVD, the instruments software is set to contour on CD31 fluorescence. […] The instrument then scans the same area but counts the number of blood vessels, i.e. a single vessel is counted by contiguous fluorescent light. […] BVD can be calculated for that sample by dividing the blood vessel count by the total number of tumor endothelial cells. Endothelial cell density is determined by dividing the total number of endothelial cells by the total number of tumor cells.

Compound: Cc1[nH]c(/C=C2\C(=O)Nc3ccccc32)c(C)c1CCC(=O)O [SU6668]
- endothelial cell death (tumor endothelial cells [1]): significant endothelial cell death
- blood vessel density (tumor vasculature [2]): 55%

Compound: CC(=O)O[C@H]1C(=O)[C@@]2(C)[C@H]([C@H](OC(=O)c3ccccc3)[C@]3(O)C[C@H](OC(=O)[C@H](O)[C@@H](NC(=O)c4ccccc4)c4ccccc4)C(C)=C1C3(C)C)[C@]1(OC(C)=O)CO[C@@H]1C[C@@H]2O [taxol]
- number of apoptotic tumor cells (breast tumor cells): dramatic increase

Compound: endostatin
- difference in change of tumor cell death between doses (tumor cells; >60 mg vs <60 mg, 95% CI (0.00,0.47), p=0.050, significant): 0.23
- change in tumor cell death (tumor cells; dose of <60 mg): 0.02
- change in tumor cell death (tumor cells; dose of >60 mg): 0.26
- apoptotic tumor cells (tumor cells; patients treated for two months, pre vs post-treatment (FIG. 10)): two out of four patients had a dramatic increase
- effect of dosing on tumor endothelial cell death (tumor endothelial cells [3]; <60 mg vs >60 mg): not significant
- apoptotic endothelial cells (tumor endothelial cells [3]; patients treated for two months, pre vs post-treatment (FIG. 11)): two out of four patients had a dramatic increase
- effect of dosing on blood vessel density (tumor vasculature [4]; <60 mg vs >60 mg): not significant
- blood vessel density (tumor vasculature [4]; Patient 1, treated for two months (FIG. 13)): dramatic decrease
- BVD post-treatment (tumor vasculature [4]; patient biopsy post-treatment with endostatin, pre-treatment BVD 53%): 28%
- decrease of endothelial cell density (ED) (endothelial cells): 1.3 fold
